The subject of one assay is M-NFS-60 cells. Briefly: MTS cell viability assay, M-NFS-60. Format: cell-based. The note with it: 72 h, read-out: Cellular Proliferation Assay M-NFS-60 (nM) GI50. The procedure: (§1) Studies were conducted to evaluate […] anticancer activity of certain compounds described in EXAMPLE 1 using 3-(4,5-dimethylthiazol-2-yl)-5-(3-carboxymethoxyphenyl)-2-(4-sulfophenyl)-2H-tetrazolium) (MTS) cell viability assays. Results from these studies are shown in Table 2 below (see columns 3 and 4).
(§2) The cell lines M-NFS-60 (ATCC® CRL-1838™) and BaF3-CSF1R-1600 were obtained from American Type Culture Collection (ATCC, Manassas, VA, USA). The stable BaF3-CSF1R-1600 cell line expresses ETV6-CSF1R fusion protein consisting of N-terminal ETS-variant gene 6 protein (ETV6 residues M1-G337) and CSF1R tyrosine kinase (CSF1R residues L533-C972). The M-NSF-60 and BaF3-CSF1R-1600 cells were cultured in RPMI1640 medium supplemented with 10% fetal bovine serum, 0.05 mM 2-ME, 10 U/ml penicillin, and 10 µg/ml streptomycin at 37° C. and 5% CO2.
(§3) M-NFS-60 and BaF3-CSF1R-1600 cells were seeded in 96-well plates at a density of 10000 cells/100 μl and 8000 cells/100 μl per well, respectively, for 16 h and treated with vehicle or various concentrations of test compounds in medium for 72 h. Viable cells were quantified using the MTS method (Promega, Madison, WI, USA) according to manufacturer's recommended protocol. The results were determined by measuring absorbance at 490 nm using a plate reader (Victor 2). The GI50 value was defined as the amount of compound that caused 50% reduction in cell viability in comparison with DMSO-treated (vehicle) control and was calculated using Prism GraphPad Prism version 6 software (GraphPad).

Assay [1] concerns BaF3-CSF1R-1600 cells (express ETV6-CSF1R fusion protein). Kind of assay: MTS cell viability assay, BaF3-CSF1R-1600. Format: cell-based. The note with it: 72 h, read-out: Cellular Proliferation Assay BaF3-CSF1R GI50. The procedure: as §1, §2, §3
Assay [2] has as its target T1, CSF1R kinase (recombinant N-terminal GST-CSF1R, residues L534-C972) (Homo sapiens, UniProt P07333).
T1 construct: Recombinant N-terminal GST-CSF1R (CSF1R residues L534-C972) containing the CSFIR kinase domain; made in house; host or cells: Sf9 insect cells
T1 sequence (P07333 534-972): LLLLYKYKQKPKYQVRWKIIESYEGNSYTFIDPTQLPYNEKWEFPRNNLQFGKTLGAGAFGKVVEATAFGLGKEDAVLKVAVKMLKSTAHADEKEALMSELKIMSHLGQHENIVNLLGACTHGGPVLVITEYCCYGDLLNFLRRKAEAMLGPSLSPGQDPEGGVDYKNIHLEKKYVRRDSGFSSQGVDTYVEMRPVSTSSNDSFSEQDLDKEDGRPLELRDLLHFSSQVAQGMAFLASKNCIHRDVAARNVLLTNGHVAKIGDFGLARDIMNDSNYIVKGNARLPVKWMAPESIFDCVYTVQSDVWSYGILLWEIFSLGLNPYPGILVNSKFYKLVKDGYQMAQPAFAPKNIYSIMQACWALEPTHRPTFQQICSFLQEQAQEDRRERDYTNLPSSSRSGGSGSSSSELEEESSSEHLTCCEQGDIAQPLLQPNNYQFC
Briefly: CSF1R Kinase-Glo assay. The note with it: 40 μM ATP, 30° C. 180 min, read-out: Enzymatic Assay CSF1R enzyme IC50. Format: biochemical. The procedure: A study was conducted to test certain compounds described in EXAMPLE 1 in inhibiting CSF1R kinase activity.
Activity of CSF1R kinase was determined using a CSF1R Kinase-Glo assay. Recombinant N-terminal GST-CSF1R (CSF1R residues L534-C972) containing the CSFIR kinase domain was expressed in Sf9 insect cells and purified. The kinase assay was carried out in 96-well plates at 30° C. for 180 min with the tested compounds in a final volume of 50 μl including the following components: 25 mM Tris-HCl pH 7.4, 4 mM MnCl2, 10 mM MgCl2, 0.01% BSA, 0.5 mM NA3VO4, 0.02% Triton X-100, 40 μM ATP, 2 mM DTT and 20 μM poly(Glu,Tyr) 4:1 peptide, and 600 ng recombinant GST-CSF1R. Following incubation, 50 μl Kinase-Glo Plus Reagent (Promega, Madison, WI, USA) was added and the mixture was incubated at 25° C. for 20 min. A 70-μL aliquot of each reaction mixture was transferred to a black microtiter plate and luminescence was measured on Wallac Vector 1420 multilabel counter (PerkinElmer, Shelton, CT, USA). Percentage inhibition values were obtained by comparison of reaction rate with the rates in control wells (i.e., in the absence of test compound). IC50 values were calculated from a series of percentage inhibition values determined at a range of test compound concentrations using GraphPad Prism version 6 software (GraphPad, San Diego, CA, USA).

SMILES strings stand for the structures. Some results are limits rather than exact numbers.

In the case of `CN(C)c1ccc2c(Oc3ccc(NC(=O)NCc4ccc(C(F)(F)F)nc4)c(Cl)c3)ncnc2c1` [Compound 33], the GI50 (in the assay on M-NFS-60 cells; in assay [1]) was 100 to 1000 nM in each case. Moreover, in assay [2], the IC50 lay in the range of 20 to 100 nM.
For the compound `CN(C)c1ccc2c(Oc3ccc(NC(=O)Nc4ccc(F)cc4)cc3)ncnc2c1` [Compound 106], the GI50 with M-NFS-60 cells is 100 to 1000 nM; in assay [1], > 1000 nM. The IC50 in assay [2] is < 20 nM.
In the same order, the values of `COc1cc(Oc2ncnc3cc(N(C)C)ccc23)ccc1NC(=O)NCc1ccc(C(F)(F)F)nc1` [Compound 42] are 100 to 1000 nM, 20 to 100 nM and < 20 nM.
Consider `COC1CCN(c2ccc3c(Oc4ccc(NC(=O)Nc5ccccc5)cc4)ncnc3c2)CC1` [Compound 2], for which the GI50 (in the assay with M-NFS-60 cells; in assay [1]) was 20 to 100 nM in each case. The IC50 in assay [2] lay within 20 to 100 nM.
Regarding `CN(C)c1ccc2c(Oc3ccc4c(ccn4C(=O)NCc4ccc(C(F)(F)F)nc4)n3)ncnc2c1` [Compound 89], the IC50 in assay [2] lay within 100 to 1000 nM.
Turning to `CN(C)c1ccc2c(Oc3ccc4c(cnn4C(=O)NCc4ccc(C(F)(F)F)nc4)c3)ncnc2c1` [Compound 68], the GI50 in the assay on M-NFS-60 cells lay in the range of 100 to 1000 nM; in assay [1], 20 to 100 nM. Also, the IC50 in assay [2] is 20 to 100 nM.
With `CN(C)c1ccc2c(Oc3ccc(NC(=O)Nc4ccccc4)cc3)ncnc2c1` [Compound 4, 1-(4-((7-(dimethylamino)quinazolin-4-yl)oxy)phenyl)-3-phenylurea], the GI50 (with M-NFS-60 cells; in assay [1]) was 20 to 100 nM in each case. Moreover, the IC50 in assay [2] is 20 to 100 nM.
Turning to `COc1ccc(CNC(=O)Nc2ccc(Oc3ncnc4cc(N(C)C)ccc34)cc2)cc1OC` [Compound 55], in assay [2], the IC50 was 20 to 100 nM.
The same measure, in the same setting: under `O=C(Nc1ccccc1)Nc1ccc(Oc2ncnc3cc(Br)ccc23)cc1` [Compound 7] stands > 1000 nM; under `O=C(NCc1ccc(C(F)(F)F)nc1)Nc1ccc(Oc2ccnc(C(=O)NCCCN3CCOCC3)c2)cc1` [Compound 77], 100 to 1000 nM; under `CN(C)c1ccc2c(Oc3ccc4c(cnn4C(=O)NCc4ccc(C(F)(F)F)nc4)c3)ncnc2c1` [Compound 69], > 1000 nM.
The same measure, in the same setting: the result for `COC[C@@H]1CCCN1c1ccc2c(Oc3ccc(NC(=O)Nc4ccccc4)cc3)ncnc2c1` [Compound 6] reads 20 to 100 nM.
With `CN(C)c1ccc2c(Nc3ccc(NC(=O)Nc4ccccc4)cc3)ncnc2c1` [Compound 71], the IC50 in assay [2] was in the range of 100 to 1000 nM.
The same measure, in the same setting: under `CN(C)c1ccc2c(Oc3ccc(NC(=O)Nc4cccc(C(F)(F)F)c4)cc3)ncnc2c1` [Compound 53] stands 100 to 1000 nM.
`O=C(Nc1ccccc1)Nc1ccc(Oc2ncnc3cc(F)ccc23)cc1` [Compound 8]: the IC50 in assay [2] fell in the range of 100 to 1000 nM.
With `CN(CCCO)c1ccc2c(Oc3ccc(NC(=O)NCc4ccc(C(F)(F)F)nc4)cc3)ncnc2c1` [Compound 39], the GI50 in the assay with M-NFS-60 cells lay within 100 to 1000 nM. In addition, the IC50 in assay [2] is < 20 nM.
In the case of `CN(C)c1ccc2c(Oc3ccc(NC(=O)NCc4cccnc4)cc3)ncnc2c1` [Compound 54], the IC50 in assay [2] was in the range of 100 to 1000 nM.
The same measure, in the same setting: the result for `CN(C)c1ccc2c(Oc3ccc(NC(=O)NCc4ccc(C(F)(F)F)nc4)cc3)ccnc2c1` [Compound 73] reads 20 to 100 nM; that for `CN(C)c1ccc2c(Oc3cnc4c(ccn4C(=O)NCc4ccc(C(F)(F)F)nc4)c3)ncnc2c1` [Compound 83], 100 to 1000 nM; that for `COC(C)(C)CNC(=O)Nc1ccc(Oc2ncnc3cc(N(C)C)ccc23)cc1` [Compound 87], > 1000 nM.
On the same count and under the same terms, under `Cn1cc(-c2ccc3c(Oc4ccc(NC(=O)NCc5ccc(C(F)(F)F)nc5)cc4)ncnc3c2)cn1` [Compound 85] stands 20 to 100 nM.
With `Cc1cc(Oc2ncnc3cc(N(C)C)ccc23)ccc1NC(=O)NCc1ccc(C(F)(F)F)nc1` [Compound 38], the IC50 in assay [2] is > 1000 nM.
`COCCCNC(=O)c1cc(Oc2ccc(NC(=O)Nc3ccccc3)cc2)ccn1` [Compound 72]: the IC50 in assay [2] was > 1000 nM.
The same measure, in the same setting: the result for `CN(C)c1ccc2c(Oc3ccc(NC(=S)Nc4ccccc4)cc3)ncnc2c1` [Compound 22] reads 100 to 1000 nM.
The same measure, in the same setting: under `CN(C)c1ccc2c(Oc3ccc(NC(=O)Nc4ccc(C(F)(F)F)cc4)cc3)ncnc2c1` [Compound 13] stands 100 to 1000 nM.
Same read-out and setting: the result for `O=C(NCc1ccc(C(F)(F)F)nc1)Nc1ccc(Oc2ncnc3[nH]ccc23)cc1` [Compound 93] reads 20 to 100 nM.
`CN(C)c1ccc2c(Oc3ccc(NC(=O)NCc4c(F)c(F)c(F)c(F)c4F)cc3)ncnc2c1` [Compound 62]: the GI50 in assay [1] lay within 100 to 1000 nM. Also, the IC50 in assay [2] was < 20 nM.
Turning to `CN(C)c1ccc2c(Oc3ccc(NC(=O)NCc4ccn(C)n4)cc3)ncnc2c1` [Compound 84], the IC50 in assay [2] is 100 to 1000 nM.
On the same count and under the same terms, the result for `CCc1cc(Oc2ncnc3cc(N(C)C)ccc23)ccc1NC(=O)NCc1ccc(C(F)(F)F)nc1` [Compound 29] reads 100 to 1000 nM; that for `CN(C)c1ccc2c(Oc3ccc(NC(=O)NCc4ccc(C#N)cc4)cc3)ncnc2c1` [Compound 60], 20 to 100 nM.
The same measure, in the same setting: the result for `Cc1cc(Oc2ncnc3cc(N(C)C)ccc23)c(C)cc1NC(=O)NCc1ccc(C(F)(F)F)nc1` [Compound 35] reads > 1000 nM.
On to `CN(C)c1ccc2c(Oc3ccc(NC(=O)NCc4ccc(C(F)(F)F)nc4)c(F)c3)ncnc2c1` [Compound 36], for which, in the assay on M-NFS-60 cells, the GI50 is 100 to 1000 nM. Moreover, the IC50 in assay [2] was 20 to 100 nM.
For `CCOc1cc2ncnc(Oc3ccc(NC(=O)NCc4ccc(C(F)(F)F)nc4)cc3)c2cc1F` [Compound 41], the GI50 in assay [1] was 100 to 1000 nM. The IC50 in assay [2] was in the range of 20 to 100 nM.
For `CN(C)c1ccc2c(Oc3ccc(N(C)C(=O)NCc4ccc(C(F)(F)F)nc4)cc3)ncnc2c1` [Compound 47], the IC50 in assay [2] is > 1000 nM.
On the same count and under the same terms, the result for `CNc1ccc2c(Oc3ccc(NC(=O)Nc4ccccc4)cc3)ncnc2c1` [Compound 107] reads 20 to 100 nM; that for `CN(C)c1ccc2c(Oc3ccc(NC(=O)NCC(C)(C)C)cc3)ncnc2c1` [Compound 90], 100 to 1000 nM; that for `CN(C)c1ccc2c(Oc3ccc(NC(=O)NCc4ccc(C(F)(F)F)nc4)cc3)c(C#N)cnc2c1` [Compound 75], > 1000 nM.
On the same count and under the same terms, the result for `CN(C)c1ccc2c(Oc3ccc(NC(=O)NCc4ccc(C(F)(F)F)cc4)c(F)c3)ncnc2c1` [Compound 61] reads 100 to 1000 nM.
Still for that read-out and setting: the result for `COc1ccc(CNC(=O)Nc2ccc(Oc3ncnc4cc(N(C)C)ccc34)cc2C)cc1` [Compound 64] reads > 1000 nM.
Consider `CN(C)c1ccc2c(Oc3ccc(NC(=O)NCC4CCCCC4)cc3)ncnc2c1` [Compound 50], for which, in assay [2], the IC50 is 20 to 100 nM.
With `CN(C)c1ccc2c(Oc3ccc(NC(=O)Nc4cccc5ccccc45)cc3)ncnc2c1` [Compound 52], the IC50 in assay [2] lay within 100 to 1000 nM.
On to `O=C(Nc1ccccc1)Nc1ccc(Oc2ncnc3cc(N[C@@H]4CCCC[C@H]4O)ccc23)cc1` [Compound 5], for which the GI50 with M-NFS-60 cells lay within 100 to 1000 nM. Further, the IC50 in assay [2] was in the range of 20 to 100 nM.
For the compound `COCCCNc1ccc2c(Oc3ccc(NC(=O)Nc4ccccc4)cc3)ncnc2c1` [Compound 12], the IC50 in assay [2] lay in the range of 20 to 100 nM.

Values taken from US12668584B2, “Heterocyclic compounds as kinase inhibitors for therapeutic uses” (National Health Research Institutes, priority 2019, dated 2026).
